Common to all, as to assay type: cell-based
Data set [1] in a line: Cytotoxicity on uninfected Vero cells, MTT. The conditions noted are these: African green monkey. On the procedure:
(§1) The antiviral activities of gramine and its derivatives against EV71 based on inhibition of virus-induced cytopathogenicity effects (CPEs) in African green monkey kidney cells (Vero) and rhabdomyosarcoma cells (RD) were examined. The cytotoxic effects were also evaluated. The inhibitory activities expressed as half maximal effective concentration (EC50) values and selectivity indexes (SI) for the target compounds are presented in Table 1, and the dose-dependent antiviral effects are shown in Figure 1A.
(§2) The activity of compounds against EV71 was determined based on the inhibition of virus-induced cytopathogenicity effects (CPEs) in acutely infected cells. Vero and RD cells grown to 90% confluency in 96-well dishes were washed with phosphate buffered saline (PBS) and infected with 100 TCID50 of EV71 mixed with serial dilutions of tested compounds for 1.5 h at 37 °C. The inoculum was aspirated and cells were incubated with DMEM and test compounds at 37 °C, 5% CO2 for 48 h. The CPEs were observed microscopically and the viability of the cells was determined with a 3-(4,5-dimethylthiazol-2-yl)-2,5-diphenyltetrazolium bromide (MTT) assay. The concentrations required for the test compounds to achieve 50% protection from virus-induced cytopathogenicity (EC50) were determined. Adverse effects of these compounds on the host cells were also assessed by means of the MTT-method; by exposing uninfected cells to various concentrations of test compounds for 48 h at 37 °C, the viability of the cells was detected. The 50% cell cytotoxic concentrations (CC50) of compounds were calculated with the SPSS software (SPSS, Chicago, IL, USA). Selectivity indexes were calculated as the ratio of CC50: EC50.
(§3) Cell viability was assessed by an MTT assay, which functions based on the reduction of a MTT into formazan dye by active mitochondria. The cells were treated with 100 µL of MTT (1 mg/mL, Sigma, St. Louis, MO, USA) and incubated at 37 °C for 4 h. The reaction was blocked by DMSO and measured in a microplate reader (Bio-Tek Instruments, Winooski, VT, USA) at 492 nm. The untreated control was arbitrarily set as 100%.

A short description of data set [2]: Cytotoxicity on uninfected RD cells, MTT. The following applies: human, concentration reducing cell viability by 50%. On the procedure:
Human RD cells and Vero cells were maintained in Dulbecco’s modified Eagle’s medium (Gibco-Invitrogen, Carlsbad, CA, USA) supplemented with 10% fetal bovine serum (FBS; Gibco), 100 U/mL of penicillin and streptomycin, and 2 mM L-glutamine. Enterovirus 71 (EV71) was kindly provided by Zhanqiu Yang (Institute of Medical Virology, School of Medicine, Wuhan University, China) and propagated in RD cell lines. The virus titer was determined by the standard method of median tissue culture infective dose (TCID50) on RD cells.
as §2, §3

For data set [3], the system named is Enterovirus 71 (EV71). In words: Inhibition of EV71-induced cytopathogenicity (CPE) in Vero cells, MTT. The conditions noted are these: for EC50: Enterovirus A, read-out: EC50 (µg/mL) Vero; for EC50 / EC50 (µg/mL) Vero: concentration for 50% protection from virus-induced cytopathogenicity, Vero cells, 100 TCID50 EV71, 48 h, MTT, mean ± SD of three experiments. On the procedure:
as §1
Figure 1 Gramine and its synthetic derivatives inhibited virus-induced CPE. (A) Vero cells were infected with 100 TCID50 of EV71 mixed with serial dilutions of tested compounds for 1.5 h at 37 °C; the inoculum was aspirated and cells were incubated with DMEM/tested compounds at 37 °C, 5% CO2 for 48 h pi. The viability of the cells was determined with an MTT assay; (B) Morphology image of Vero and RD cells treated with compounds 4a, 4i, 4r, and 4s for 48 h pi. (magnification, 20×).
as §2, §3
For orientation: Damage to the host cells serves as the signal in cytopathic effect assays.

Data set [4] relates to Enterovirus 71 (EV71). In words: Inhibition of EV71-induced cytopathogenicity (CPE) in RD cells, MTT. The conditions noted are these: concentration for 50% protection from virus-induced cytopathogenicity, RD cells, 100 TCID50 EV71, 48 h, MTT; for EC50: Enterovirus A, read-out: EC50 (µg/mL) RD. On the procedure: as §1, §2, §3
The mark [5] stands for this setting: concentration reducing cell viability by 50%, uninfected Vero cells, 48 h, MTT, read-out: CC50 (µg/mL) Vero.

The record followed here is paper PMC6271245, “Discovery of Gramine Derivatives That Inhibit the Early Stage of EV71 Replication in Vitro” (Molecules, 2014).

Values after ≈ are worked out from the molar mass of the structure shown.

Regarding `FC(F)(F)c1ccc(C(Nc2ccccn2)c2c[nH]c3ccccc23)cc1` (centres unmarked) [Compound 4j], the results for the CC50 at 48 h in data set [1] (setting [5]) and in data set [2] were 15.8 ± 3.3 µg/mL (≈ 43 µM) and 17.8 ± 2.6 µg/mL (≈ 48.5 µM), respectively. Also, the EC50 worked out at 8.7 ± 2.9 µg/mL (≈ 23.7 µM) in the data set with Enterovirus 71 (EV71) [3] and 8.3 ± 3.5 µg/mL (≈ 22.6 µM) in the data set with Enterovirus 71 (EV71) [4].
With `Cn1cc(C(Nc2ccccn2)c2ccc(Cl)cc2)c2ccccc21` (centres unmarked) [Compound 4g], the CC50 at 48 h worked out at 38.6 ± 5.7 µg/mL (≈ 111 µM) in data set [1] (setting [5]) and 32 ± 1.8 µg/mL (≈ 92 µM) in data set [2]. For the same molecule, the EC50 was found to be 4.9 ± 0.7 µg/mL (≈ 14.1 µM) in the data set on Enterovirus 71 (EV71) [3] and 4.9 ± 1.2 µg/mL (≈ 14.1 µM) with Enterovirus 71 (EV71) [4].
On to `Fc1ccccc1C(Nc1ccccn1)c1c[nH]c2ccccc12` (centres unmarked) [Compound 4d], for which the CC50 at 48 h came to 37.8 ± 5.8 µg/mL (≈ 119 µM) in data set [1] (setting [5]) and 28 ± 5.2 µg/mL (≈ 88.2 µM) in data set [2]. Further, the EC50 in the data set with Enterovirus 71 (EV71) [3] was determined as 9.2 ± 2.1 µg/mL (≈ 29 µM); in the data set on Enterovirus 71 (EV71) [4], 5.8 ± 1.4 µg/mL (≈ 18.3 µM).
The like results for `Cn1cc(C(Nc2ccccn2)c2ccncc2)c2ccccc21` (centres unmarked) [Compound 4o] were, in that order, 72.8 ± 18.8 µg/mL (≈ 232 µM), 39.2 ± 11.6 µg/mL (≈ 125 µM), 16.9 ± 1.5 µg/mL (≈ 53.8 µM) and 9.5 ± 1.7 µg/mL (≈ 30.2 µM).
For the molecule `Clc1ccccc1C(Nc1nc2ccccc2s1)c1c[nH]c2ccccc12` (centres unmarked) [Compound 4p], the CC50 at 48 h in data set [1] (setting [5]) was 6.6 ± 1.4 µg/mL (≈ 16.9 µM); in data set [2], 11.7 ± 4.6 µg/mL (≈ 30 µM). Moreover, the values for the EC50 in the data set with Enterovirus 71 (EV71) [3] and with Enterovirus 71 (EV71) [4] were 2.1 ± 0.7 µg/mL (≈ 5.39 µM) and 3.2 ± 0.4 µg/mL (≈ 8.21 µM), respectively.
The corresponding values for `Cn1cc(C(Nc2ccccn2)c2ccccc2F)c2ccccc21` (centres unmarked) [Compound 4h] are 89.3 ± 12.6 µg/mL (≈ 269 µM), 52.2 ± 8.3 µg/mL (≈ 158 µM), 10.5 ± 2.1 µg/mL (≈ 31.7 µM) and 11.2 ± 4.6 µg/mL (≈ 33.8 µM).
`Fc1ccc(C(c2c[nH]c3ccccc23)n2cncn2)cc1` (centres unmarked) [Compound 4u]: the CC50 at 48 h in data set [1] (setting [5]) amounted to 4.9 ± 0.6 µg/mL (≈ 16.8 µM); in data set [2] it was 6.8 ± 2.5 µg/mL (≈ 23.3 µM). Further, the EC50 came to 2.3 ± 0.3 µg/mL (≈ 7.87 µM) with Enterovirus 71 (EV71) [3] and 3.1 ± 1.3 µg/mL (≈ 10.6 µM) with Enterovirus 71 (EV71) [4].
On to `CN(C)Cc1c[nH]c2ccccc12` [Gramine], for which the CC50 at 48 h was found to be 101 ± 5.6 µg/mL (≈ 582 µM) in data set [1] and 85 ± 16.3 µg/mL (≈ 488 µM) in data set [2]. Further, in the data set on Enterovirus 71 (EV71) [3], the “EC50 (µg/mL) Vero” value is given as “— ^d (less than 50% inhibition)”. The anti-EV71 activity entry in the data set on Enterovirus 71 (EV71) [3] (inhibition of EV71-induced CPEs compared with virus control) is “not observed”. Moreover, in the data set with Enterovirus 71 (EV71) [4], the “EC50 (µg/mL) RD” value is “— (less than 50% inhibition)”.
With `Fc1ccccc1C(Nc1nc2ccccc2s1)c1c[nH]c2ccccc12` (centres unmarked) [Compound 4q], the CC50 at 48 h in data set [1] (setting [5]) is 10.8 ± 2.5 µg/mL (≈ 28.9 µM); in data set [2], 14.5 ± 3.6 µg/mL (≈ 38.8 µM). The EC50 came out at 1.8 ± 1.1 µg/mL (≈ 4.82 µM) in the data set on Enterovirus 71 (EV71) [3] and 2.7 ± 1.2 µg/mL (≈ 7.23 µM) in the data set with Enterovirus 71 (EV71) [4].
Regarding `Fc1ccc(C(Nc2ccccn2)c2c[nH]c3ccccc23)cc1` (centres unmarked) [Compound 4e], the CC50 at 48 h amounted to 40.7 ± 2.5 µg/mL (≈ 128 µM) in data set [1] (setting [5]) and 29.5 ± 3.3 µg/mL (≈ 93 µM) in data set [2]. Also, the EC50 with Enterovirus 71 (EV71) [3] worked out at 7.3 ± 2.6 µg/mL (≈ 23 µM); with Enterovirus 71 (EV71) [4], 6.2 ± 2.8 µg/mL (≈ 19.5 µM).
For `Cn1cc(C(Nc2ccccn2)c2ccc(C(F)(F)F)cc2)c2ccccc21` (centres unmarked) [Compound 4k], the CC50 at 48 h in data set [1] (setting [5]) turned out to be 18.5 ± 4.8 µg/mL (≈ 48.5 µM); in data set [2] it was 27.6 ± 8.3 µg/mL (≈ 72.4 µM). For the same molecule, the EC50 was determined as 13.2 ± 1.3 µg/mL (≈ 34.6 µM) with Enterovirus 71 (EV71) [3] and 9.8 ± 3.4 µg/mL (≈ 25.7 µM) with Enterovirus 71 (EV71) [4].
For `c1ccc(NC(c2ccccn2)c2c[nH]c3ccccc23)nc1` (centres unmarked) [Compound 4l], the CC50 at 48 h came to 96.2 ± 15.5 µg/mL (≈ 320 µM) in data set [1] (setting [5]) and 65.2 ± 9.1 µg/mL (≈ 217 µM) in data set [2]. In addition, in the data set on Enterovirus 71 (EV71) [3], the “EC50 (µg/mL) Vero” value was “— (less than 50% inhibition)”. Further, the “EC50 (µg/mL) RD” value in the data set with Enterovirus 71 (EV71) [4] is given as “— (less than 50% inhibition)”.
Take `Cn1cc(C(Nc2ccccn2)c2ccccc2Cl)c2ccccc21` (centres unmarked) [Compound 4f]: the CC50 at 48 h in data set [1] (setting [5]) came to 86.4 ± 7.4 µg/mL (≈ 248 µM); in data set [2] it was 44 ± 5.1 µg/mL (≈ 126 µM). Moreover, the EC50 in the data set with Enterovirus 71 (EV71) [3] was 14.4 ± 3.2 µg/mL (≈ 41.4 µM). For the same molecule, the “EC50 (µg/mL) RD” value in the data set with Enterovirus 71 (EV71) [4] is listed as “— (less than 50% inhibition)”.
On to `Clc1ccc(C(Nc2ccccn2)c2c[nH]c3ccccc23)cc1` (centres unmarked) [Compound 4c], for which the CC50 at 48 h in data set [1] (setting [5]) came out at 22.4 ± 3.6 µg/mL (≈ 67.1 µM); in data set [2] it was 24.6 ± 3.5 µg/mL (≈ 73.7 µM). Besides, the EC50 in the data set on Enterovirus 71 (EV71) [3] turned out to be 5.6 ± 1.3 µg/mL (≈ 16.8 µM); in the data set with Enterovirus 71 (EV71) [4], 6.7 ± 0.8 µg/mL (≈ 20.1 µM).
Take `Cn1cc(C(Nc2ccccn2)c2ccccn2)c2ccccc21` (centres unmarked) [Compound 4m]: the CC50 at 48 h in data set [1] (setting [5]) and in data set [2] was > 200 µg/mL in each case. For the same molecule, in the data set with Enterovirus 71 (EV71) [3], the “EC50 (µg/mL) Vero” value is recorded as “— (less than 50% inhibition)”. Moreover, the “EC50 (µg/mL) RD” value in the data set on Enterovirus 71 (EV71) [4] is given as “— (less than 50% inhibition)”.
With `NC(=O)c1ncn([C@@H]2O[C@H](CO)[C@@H](O)[C@H]2O)n1` [ribavirin, reference compound], the CC50 at 48 h in data set [1] is > 500 µg/mL; in data set [2], 436 µg/mL (≈ 1780 µM). The EC50 in the data set with Enterovirus 71 (EV71) [3] stood at 44.6 ± 13.5 µg/mL (≈ 183 µM); in the data set with Enterovirus 71 (EV71) [4] it was 32.1 µg/mL (≈ 131 µM).
Consider `Fc1ccc(C(c2c[nH]c3ccccc23)n2cccn2)cc1` (centres unmarked) [Compound 4t], for which the CC50 at 48 h stood at 10.5 ± 2.4 µg/mL (≈ 36 µM) in data set [1] (setting [5]) and 12.6 ± 3.5 µg/mL (≈ 43.3 µM) in data set [2]. The EC50 is 1.9 ± 0.6 µg/mL (≈ 6.52 µM) in the data set on Enterovirus 71 (EV71) [3] and 2.6 ± 0.8 µg/mL (≈ 8.92 µM) in the data set on Enterovirus 71 (EV71) [4].
`c1ccc(NC(c2ccncc2)c2c[nH]c3ccccc23)nc1` (centres unmarked) [Compound 4n]: the CC50 at 48 h in data set [1] (setting [5]) is 121 ± 20.5 µg/mL (≈ 402 µM); in data set [2], > 200 µg/mL. Also, the “EC50 (µg/mL) Vero” value with Enterovirus 71 (EV71) [3] is given as “— (less than 50% inhibition)”. Further, in the data set with Enterovirus 71 (EV71) [4], the “EC50 (µg/mL) RD” value is reported as “— (less than 50% inhibition)”.
`Clc1ccccc1C(Nc1ccccn1)c1c[nH]c2ccccc12` (centres unmarked) [Compound 4b]: the CC50 at 48 h in data set [1] (setting [5]) is 18.6 ± 1.4 µg/mL (≈ 55.7 µM); in data set [2] it was 22.8 ± 1.7 µg/mL (≈ 68.3 µM). The EC50 with Enterovirus 71 (EV71) [3] was found to be 5.1 ± 2.7 µg/mL (≈ 15.3 µM); in the data set on Enterovirus 71 (EV71) [4], 7.4 ± 1.1 µg/mL (≈ 22.2 µM).
